According to EP1743628A1, “Cosmetic composition containing red algae extract comprising a combination of floridoside and isethionic acid” (Simer, priority 2005, dated 2007):

Assays:
[1] = test system: transglutaminase kératinocytaire (TGk); experiment: Keratinocyte transglutaminase (TGk) activity in NHEK cultures (differentiation)
[2] = test system: stratum corneum (SC) délipidisé; experiment: Water retention (water-holding capacity, WHC) of delipidised stratum corneum after immersion in aqueous test solutions; set-up: species or system porc; conditions: 8 h immersion, après 6 heures à 25°C et 40% RH
Protocol: On étudie l'hydratation du stratum corneum (SC) délipidisé et traité par différentes solutions aqueuses.
Le but de cette étude est de montrer si l'application cutanée d'une solution aqueuse d'extrait de mastocarpus (10% de matière sèche), de floridoside pur à 3,8%, d'acide iséthionique pur à 1,9%, d'un mélange de floridoside pur à 3,8% et d'acide iséthionique pur à 1,9%, modifie significativement l'état d'hydratation du SC délipidisé puis conservé dans une enceinte à 25°C et à 40 % d'humidité relative (RH).
Dans cette étude, des échantillons de SC, isolés de l'épiderme de morceaux d'oreilles de porc par un traitement à la trypsine (1% dans un tampon phosphate; pH=7,4) puis délipidisés par un solvant (acétone par exemple), ont été immergés pendant 8 heures dans une solution aqueuse d'extrait de mastocarpus 10%, de floridoside pur à 3,8%, d'acide iséthionique pur à 1,9%, d'un mélange de floridoside pur à 3,8% et d'acide iséthionique pur à 1,9%, (3 échantillons de SC par produits). Trois échantillons de SC délipidisé ont été traités par de l'eau ultra pure (contrôle, 18 MΩ), pendant 8 heures. Après traitement, ces échantillons ont été pesés puis placés dans une étuve maintenue à 25°C et à 40% RH. La masse des échantillons de SC traités par chacune des solutions a été déterminée après 1h; 2h; 3h; 4h; 5h et 6h de conservation à 25°C et à 40% RH. […]

[3] = test system: fibres musculaires en coculture avec des explants de moelle épinière; format: cell-based, cellules musculaires humaines; embryons de rat Wistar
[4] = acide rétinoïque, concentration not printed in this table (10^-7M per Tableau 4)

SMILES: CC1=C(/C=C/C(C)=C/C=C/C(C)=C/C(=O)O)C(C)(C)CCC1 [Acide rétinoïque]
- % témoin (activité TGk) ([1]; 10^-7M): 52%
- Activité TGk (cpm) ([1]; 10^-7M): 447 cpm
- réduction de l'activité TGk ([1]; 10^-7M): 46%
- % (activité TGk/µg de protéines, par rapport au témoin) [1, 4]: 67%
- activité/µg (activité TGk par rapport à la quantité de protéines) [1, 4]: 131

SMILES: CC1=C(/C=C/C(C)=C/C=C/C(C)=C/CO)C(C)(C)CCC1 [Rétinol]
- % (activité TGk/µg de protéines, par rapport au témoin) ([1]; 10^-6 M): 72%
- % témoin (activité TGk) ([1]; 10^-6 M): 54%
- Activité TGk (cpm) ([1]; 10^-6 M): 465 cpm
- activité/µg (activité TGk par rapport à la quantité de protéines) ([1]; 10^-6 M): 142
- réduction de l'activité TGk ([1]; 10^-6 M): 48%

SMILES: O=S(=O)(O)CCO [acide iséthionique]
- état de déshydratation des échantillons de SC ([2]; acide iséthionique 1,9%, vs contrôle): moins déshydratés que les échantillons contrôles

SMILES: CCCC(C)(COC(N)=O)COC(=O)NC(C)C (centres unmarked) [carisoprodol]
- fréquence de contraction des 3 fibres musculaires sélectionnées ([3]; 10^-3 M (0,03%), après 1 minute et 2 heures d'incubation): a bloqué
- activité contractile après recharge en glucose ([3]; 10^-3 M, 48 heures d'incubation, apport de glucose): n'a pas permis aux fibres musculaires de reprendre une activité contractile
- pourcentage moyen de contraction des trois fibres (récupération) ([3]; carisoprodol 10^-3 M, après changement de milieu et 2 heures sans produit, relative to initial frequency): 111%

SMILES: [Ca+2].[Cl-].[Cl-] [Chlorure de calcium]
- % (activité TGk/µg de protéines, par rapport au témoin) ([1]; 1,5 mM): 317%
- % témoin (activité TGk) ([1]; 1,5 mM): 394%
- activité/µg (activité TGk par rapport à la quantité de protéines) ([1]; 1,5 mM): 626
- Activité TGk (cpm) ([1]; 1,5mM, sans calcium dans le milieu): 3408 cpm
- activité transglutaminase plus forte en milieu calcium qu'en milieu sans calcium ([1]; chlorure de calcium 1,5 mM): ~4 fois

SMILES: OCC(CO)O[C@H]1O[C@H](CO)[C@H](O)[C@H](O)[C@H]1O [floridoside, 2-O-glycérol-α-D-galactopyranoside]
- état de déshydratation des échantillons de SC ([2]; floridoside 3,8%, vs eau): n'était pas significativement différent
